Read-outs that look alike come from different tables or passages of the source.
Assays:
[1] = test system: green peach aphid (Myzus persicae); type: in vivo
Experimental: To produce a suitable preparation of active compound, 1 part by weight of active compound is mixed with the stated amounts of solvent and emulsifier, and the concentrate is diluted with emulsifier-containing water to the desired concentration.
Cabbage leaves (Brassica oleracea) which are heavily infested by the green peach aphid (Myzus persicae) are treated by being dipped into the preparation of active compound of the desired concentration.
After the desired period of time, the kill in % is determined. 100% means that all aphids have been killed; 0% means that none of the aphids have been killed. The determined kill rates are entered into Colby's formula.

[2] = test system: caterpillars of the diamond back moth (Plutella xylostella, sensitive strain); conditions: in vivo
Experimental: After the desired period of time, the kill in % is determined. 100% means that all caterpillars have been killed; 0% means that none of the caterpillars have been killed. The determined kill rates are entered into Colby's formula.

Row | Structure (SMILES) | Mortality in % after 1^d ([1]; 0.8 ppm, active compound alone) [%] | Mortality in % after 1^d [2] [%] | Mortality in % after 1^d ([1]; in vivo) [%]
1 | CN/C(=N\[N+](=O)[O-])NCc1cnc(Cl)s1 [Clothianidin, clothianidin] | 40 | – | –
2 | O=[N+]([O-])/N=C1\NCCN1Cc1ccc(Cl)nc1 [Imidacloprid, imidacloprid] | – | 40 | 45
